Laboratory results from patent US4175125A, “Method for treating methicillin resistant staphylococcus aureus” (Eli Lilly and Company, priority 1978, dated 1979).

How the values were obtained:
[1] = system: Staphylococcus aureus cultures; assay: Broth dilution MIC in trypticase soy broth, low and high NaCl (Example 10); format: cell-based; conditions: Staphylococcus aureus, TSB, read-out: MIC
Method: This example compares the antibiotic activities of methicillin, cephalothin and cephaloridine with the compounds of Examples 1, 2 and 3, in broth dilution tests. The MIC values, in μg/ml., are against the same Staphylococcus aureus cultures described in Example 9, except that in this example the cultures were grown in trypticase soy broth (TSB). Growing the cultures in two broth cultures, one having a low (0.5 percent) sodium chloride content and one having a high (5.0 percent) sodium chloride content is said to assist in identifying the methicillin-resistant cultures from those which are not methicillin-resistant. […] See Chabbert, Y. A., 1967 Postgrad. Med. J., 43 (suppl); 40-46. One expects that similar changes in MIC values for this type of culture to other β-lactam antibiotics, e.g., various penicillins and cephalosporins, to have similar implications. […] That is, methicillin-resistant S.aureus cultures are susceptible to the cephalosporin antibiotics used in this invention.

[2] = system: Staphylococcus aureus cultures; assay: Agar dilution susceptibility test, phenylthioacetyl cephalosporins vs methicillin resistant S. aureus (Example 9); format: cell-based; conditions: Staphylococcus aureus, read-out: MIC
Text: This example compares the antibiotic activities of three known compounds, methicillin, cephalothin, and cephaloridine, with three compounds from the above examples, in terms of minimum inhibitory concentration (MIC) values in microgram/milliliter units against various isolates of Staphylococcus aureus cultures. The culture numbers and the procedures used to obtain the reported data are disclosed by W. E. Wick and D. A. Preston in their article "Heterogeneous Methicillin-Resistant Staphylococcus Aureus" which appeared in Progress in Antimicrobial And Anticancer Chemotherapy, Proceedings of the 6th International Congress of Chemotherapy, Volume, 1, U. of Tokyo Press, Tokyo, (1970). In these agardilution susceptibility tests, the inocula were diluted to 10^3 bacteria per spot. Cultures 3055 (benzylpenicillin sensitive) and H232 (benzylpenicillin-resistant) are controls. The remaining cultures are methicillin-resistant, and, except for 3136, are clinical isolates. Culture 3136 is a 4th transfer laboratory selected mutant.

[3] = culture 3131, table part marked b
[4] = culture 3131, table part marked c
[5] = culture 3135, table part marked b
[6] = culture 3135, table part marked c
[7] = culture 3136, table part marked b
[8] = culture 3136, table part marked c
[9] = culture 3137, table part marked b
[10] = culture 3137, table part marked c
[11] = culture 3138, table part marked b
[12] = culture 3138, table part marked c
[13] = culture 3139, table part marked b
[14] = culture 3139, table part marked c
[15] = culture (Seattle) 966, table part marked b
[16] = culture (Seattle) 966, table part marked c
[17] = culture S61, table part marked b
[18] = culture S61, table part marked c

Measured: MIC

O=C(Cc1cccs1)N[C@@H]1C(=O)N2C(C(=O)[O-])=C(C[n+]3ccccc3)CS[C@H]12 [Cephaloridine, cephaloridine, reference compound]
16 µg/mL: [1]; [4] | [1]; culture 3132 (first column so headed), table part marked c | [1]; culture 3132 (second column so headed), table part marked c | [1]; [6] | [1]; [8] | [1]; [12] | [1]; culture Kavarnick 1138501, table part marked c | [1]; culture S, table part marked c | [2]; [4] | [2]; culture 3133, table part marked c | [2]; culture 3134, table part marked c | [2]; [8] | [2]; [12] | [2]; [18]
< 0.06 µg/mL: [2]; culture 3055 (control, benzylpenicillin sensitive), table part marked b | [2]; culture H232 (control, benzylpenicillin-resistant), table part marked b | [2]; culture H232 (control, benzylpenicillin-resistant), table part marked c
0.25 µg/mL: [2]; culture 3055 (control, benzylpenicillin sensitive), table part marked c | [2]; [7] | [2]; [15] | [2]; [16]
2 µg/mL: [1]; [3] | [1]; culture 3132 (first column so headed), table part marked b | [1]; [5] | [1]; culture Kavarnick 1138501, table part marked b | [2]; culture 3132, table part marked b | [2]; culture 3132, table part marked c
64 µg/mL: [1]; [18]
32 µg/mL: [1]; [10] | [2]; [10]
< 0.5 µg/mL: [1]; [7]
1 µg/mL: [1]; culture 3132 (second column so headed), table part marked b | [1]; [13] | [2]; [3] | [2]; [5] | [2]; [13] | [2]; culture Kavarmark 1138501, table part marked b
8 µg/mL: [1]; [9] | [1]; [14] | [1]; [16] | [2]; culture 3130, table part marked c | [2]; culture 3134, table part marked b | [2]; [6] | [2]; [9] | [2]; [11]
4 µg/mL: [1]; [11] | [1]; [15] | [1]; [17] | [1]; culture S, table part marked b | [2]; culture 3130, table part marked b | [2]; culture 3133, table part marked b | [2]; [14] | [2]; culture Kavarmark 1138501, table part marked c | [2]; [17]
